What was measured:
[1] = test system: lymphatic leukemia P388; test: Antitumor activity against leukemia P388, second experiment (Table 10); format: in vivo, male BDF1 mice; settings: for MST % T/C / Survivors Day 5 / Survivors Day 22 / Average weight change: QD 1→9; for antitumor activity against leukemia P388 (in words): second experiment, ip, once daily for 9 days, comparative
Description: In this experiment lymphatic leukemia P388 was implanted intraperitoneally into male BDF1 mice at an inoculum size of 10^6 cells per mouse. Test compounds were dissolved in 0.9% saline containing 10% dimethylsulfoxide. Graded doses of test compounds were administered to mice intraperitoneally 24 hours after the tumor implantation, and the treatment was continued once daily for 9 days.
Tumor inoculum: 10^6 ascites cells implanted
Treatment: QD 1→9, i.p.
Evaluation: MST = median survival
Effect: % T/C = (MST treated/MST control) ×
Criteria: % T/C ≥125 considered as significant antitumor activity

[2] = test system: lymphocytic leukemia P388; test: Antitumor activity against leukemia P388 in mice (Table 9); format: in vivo, mice (BDF1 strain); settings: first experiment; ip, qd 1→9; comparative
Description: The antitumor activity of BBM-2040A and B was determined in mice (BDF1 strain) against lymphocytic leukemia P388. Each mouse was inoculated intraperitoneally with 10^6 cells of tumor. Graded doses of test compounds were administered to mice intraperitoneally 24 hours after the tumor implantation. The treatments were given once daily for 9 days (qd 1→9 schedule). Neothramycin was comparatively tested as a reference compound.
*ratio of median survival time of test and control animals

[3] = test system: P388 mouse leukemia; test: P388 mouse leukemia test (comparison of 2-hydroxy isomers); format: in vivo; settings: β-hydroxy versus α-hydroxy isomers
From the text: The diastereoisomers of BBM-2040A and B of the present invention have been disclosed in Symposium Papers of the 24th Symposium on the Chemistry of Natural Products (Osaka, Japan, Oct. 13-16, 1981): Paper #72, pp. 552-559. Compounds 31b and 32b in this paper have the structures [drawing 2] and may be differentiated from BBM-2040A and B of the present invention in the configuration of the C-2 hydroxy group, i.e. BBM-2040A and B have the C-2 hydroxy group in the α-configuration while the corresponding 31b and 32b diastereoisomers have the β-configuration at the C-2 hydroxy group.

[4] = Stability in solutions
[5] = test system: Streptococcus pyogenes, Micrococcus luteus, Micrococcus flavus and Mycobacterium strains; test: Antibacterial activity, agar dilution; format: cell-based; settings: against Streptococcus pyogenes
Description: The minimum inhibitory concentration (MIC) of BBM-2040 was determined for a variety of gram-positive, gram-negative and acid-fast bacteria by the serial two-fold agar dilution method. Nutrient agar medium was used for gram-positive and gram-negative organisms and No. 1001 medium (3% glycerol, 0.3% sodium L-glutamate, 0.2% peptone, 0.31% Na2 HPO4, 0.1% KH2 PO4, 0.005% ammonium citrate, 0.001% MgSO4 and 1.5% agar) for acid-fast organisms.

[6] = Acute toxicity, single intraperitoneal administration; parameters: species or system mice (ddY strain); settings: mouse, in vivo, ip, ddY mice
Description: The intraperitoneal LD50 of neothramycin has been reported to be 20-30 mg/kg.

[7] = Solubility
[8] = in benzene, chloroform and n-hexane
[9] = in ethyl acetate, acetone and water
[10] = in methanol, ethanol, n-butanol and pyridine

## COc1cc2c(cc1O)N=CC1CCC(O)N1C2=O (stereo not drawn) [Neothramycin]
[1]; 0.1 mg/kg/day ip
  MST % T/C: 108%
  Survivors Day 5: 6/6
  Survivors Day 22: 0/6
[1]; 0.3 mg/kg/day ip
  MST % T/C: 121%
  Survivors Day 5: 6/6
  Survivors Day 22: 0/6
[1]; 1 mg/kg/day ip
  MST % T/C: 142%
  Survivors Day 5: 6/6
  Survivors Day 22: 0/6
[1]; 3 mg/kg/day ip
  MST % T/C: 146%
  Survivors Day 5: 6/6
  Survivors Day 22: 0/6
[1]
  antitumor activity against leukemia P388 (in words): similarly active
[2]
  antitumor activity against leukemia P388 (in words): similarly active

## COc1cc2c(cc1O)N=C[C@@H]1C[C@@H](O)CN1C2=O [32b, reference compound]
[3]
  antitumor activity in the P388 mouse leukemia test (in words): essentially devoid of antitumor activity

## COc1cc2c(cc1O)N=C[C@@H]1C[C@H](O)CN1C2=O [BBM-2040B]
[4]
  stability in solutions: relatively unstable
[2]
  antitumor activity against leukemia P388 (in words): somewhat less active than BBM-2040A
[3]
  antitumor activity in the P388 mouse leukemia test (in words): marked activity
[5]
  antibacterial activity (in words): weak antibacterial activity
[6]
  LD50: 57 mg/kg
[7]; [8]
  solubility: practically insoluble
[7]; [9]
  solubility: slightly soluble
[7]; [10]
  solubility: readily soluble

## COc1cc2c(cc1O)N[C@H](OC)[C@@H]1C[C@@H](O)CN1C2=O [2β-Hydroxy epimer of BBM-2040 A]
[1]; 0.03 mg/kg/day ip
  Survivors Day 5: 6/6
  Survivors Day 22: 0/6
[1]; 0.1 mg/kg/day ip
  Survivors Day 5: 6/6
  Survivors Day 22: 0/6
[1]; 0.3 mg/kg/day ip
  Survivors Day 5: 6/6
  Survivors Day 22: 0/6
[1]; 1 mg/kg/day ip
  Survivors Day 5: 6/6
  Survivors Day 22: 0/6

## COc1cc2c(cc1O)N[C@H](OC)[C@@H]1C[C@H](O)CN1C2=O [BBM-2040A, (2S, 11aS)-5,10,11,11a-tetrahydro-2,8-dihydroxy-7,11-dimethoxy-5-oxo-1H-pyrrolo(2,1-c) (1,4)benzodiazepine]
[1]; 0.1 mg/kg/day ip
  Average weight change: +1.5 g
  MST % T/C: 100%
  Survivors Day 5: 6/6
  Survivors Day 22: 0/6
[1]; 0.3 mg/kg/day ip
  Average weight change: +1.3 g
  MST % T/C: 117%
  Survivors Day 5: 6/6
  Survivors Day 22: 0/6
[1]; 1 mg/kg/day ip
  MST % T/C: 133%
  Survivors Day 5: 6/6
  Survivors Day 22: 0/6
[1]; 3 mg/kg/day ip
  MST % T/C: 142%
  Survivors Day 5: 6/6
  Survivors Day 22: 0/6
[1]; 10 mg/kg/day ip
  MST % T/C: 163%
  Survivors Day 5: 6/6
  Survivors Day 22: 1/6
[1]
  antitumor activity against leukemia P388 (in words): similarly active
[2]
  antitumor activity against leukemia P388 (in words): similarly active
[3]
  antitumor activity in the P388 mouse leukemia test (in words): marked activity
[5]
  antibacterial activity (in words): weak antibacterial activity
[6]
  LD50: 34 mg/kg
[7]; [8]
  solubility: practically insoluble
[7]; [9]
  solubility: slightly soluble
[7]; [10]
  solubility: readily soluble

## COc1cc2c(cc1O)N[C@H](OC)[C@@H]1C[C@@H](O)CN1C2=O [31b, reference compound]
[3]
  antitumor activity in the P388 mouse leukemia test (in words): essentially devoid of antitumor activity

From patent publication US4464467A, “Antitumor antibiotics produced by new streptomyces” (Bristol-Myers Company, priority 1982, dated 1984)
